Data: patent publication US20260297085A1, “1 H-PYRROLO[2,3-B]PYRIDIN-4-YL]-2-OXOPYRROLIDINE-3-CARBONITRILE DERIVATIVES AS TYROSINE KINASE 2 (TYK2) INHIBITORS FOR THE TREATMENT OF INFLAMMATORY DISEASES” (BIOGEN MA INC., priority 2023, published 2026)
Where a name gives a salt, the structure may show the parent alone.

How the values were obtained:
[1] = target: T1, human JAK3 kinase domain (JH1) (Homo sapiens, UniProt P52333); assay: JH1 biochemical assay for JAK3 (ADP-Glo kinase assay, recombinant JH1 catalytic domain, JAK3-974 peptide, 4 μM ATP)
T1 construct: recombinantly generated catalytic kinase (also known as JH1) domain of human JAK1, JAK2, JAK3 and TYK2
T1 sequence (P52333 822-1111 limits assumed): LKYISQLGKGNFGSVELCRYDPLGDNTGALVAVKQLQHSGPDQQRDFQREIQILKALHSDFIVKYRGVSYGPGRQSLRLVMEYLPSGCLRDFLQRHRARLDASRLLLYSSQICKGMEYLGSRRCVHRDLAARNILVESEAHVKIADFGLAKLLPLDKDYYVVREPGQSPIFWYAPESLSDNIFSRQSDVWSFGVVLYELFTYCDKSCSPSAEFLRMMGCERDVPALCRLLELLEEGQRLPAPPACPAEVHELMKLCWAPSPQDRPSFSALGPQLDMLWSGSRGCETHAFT
Description: (§1) Compounds of the disclosure were assessed for their ability to inhibit TYK2, JAK1, JAK2, and JAK3 activity. The inhibitory properties of the compounds of the disclosure described herein can be evidenced by testing in any one of the following protocols.
(§2) The kinase activity of recombinantly generated catalytic kinase (also known as JH1) domain of human JAK1, JAK2, JAK3 and TYK2 were evaluated in a plate-based assay using the ADP-Glo™ Kinase Assay platform. Specifically, 4 nM of recombinant JAK1 kinase domain is used to phosphorylate 50 μM of a JAK3-342 (sequence ALVDGYFRLTT) peptide in the presence of 35 μM ATP. Catalytic activities of recombinant JAK2, JAK3 and TYK2 kinase domain (0.2, 0.3 and 2 nM, respectively) are evaluated by the phosphorylation status of the JAK3-974 (50 μM; sequence LPLDKDYYVVR) peptide with the addition of ATP (15, 4 and 10 μM, respectively). The reactions proceed for 100 minutes and the catalytic activity is quantified by first depleting the unused ATP, converting the hydrolyzed ADP into ATP to generate luminescence in a luciferase reaction; which is the basis of the ADP-Glo platform. Compounds are tested at either 10 μM or 1 μM top concentration, 11 points of 3-fold dilution. The data is normalized and the percent activity versus log concentration of compound is fitted with a 4-parameter logistic model to generate a curve and an IC50 value.

[2] = target: T2, human TYK2 kinase domain (JH1) (Homo sapiens, UniProt P29597); assay: JH1 biochemical assay for TYK2 (ADP-Glo kinase assay, recombinant JH1 catalytic domain, JAK3-974 peptide, 10 μM ATP)
T2 construct: recombinantly generated catalytic kinase (also known as JH1) domain of human JAK1, JAK2, JAK3 and TYK2
T2 sequence (P29597 897-1176 limits assumed): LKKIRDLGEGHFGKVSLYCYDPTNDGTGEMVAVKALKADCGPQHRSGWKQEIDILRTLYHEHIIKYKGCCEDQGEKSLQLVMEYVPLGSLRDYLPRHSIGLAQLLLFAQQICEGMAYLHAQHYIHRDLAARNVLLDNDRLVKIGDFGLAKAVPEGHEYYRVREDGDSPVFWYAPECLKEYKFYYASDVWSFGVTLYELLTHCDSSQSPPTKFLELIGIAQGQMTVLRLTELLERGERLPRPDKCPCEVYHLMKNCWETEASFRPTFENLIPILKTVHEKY
Description: as §1, §2

[3] = target: T3, human JAK2 kinase domain (JH1) (Homo sapiens, UniProt O60674); assay: JH1 biochemical assay for JAK2 (ADP-Glo kinase assay, recombinant JH1 catalytic domain, JAK3-974 peptide, 15 μM ATP)
T3 construct: recombinantly generated catalytic kinase (also known as JH1) domain of human JAK1, JAK2, JAK3 and TYK2
T3 sequence (O60674 849-1124 limits assumed): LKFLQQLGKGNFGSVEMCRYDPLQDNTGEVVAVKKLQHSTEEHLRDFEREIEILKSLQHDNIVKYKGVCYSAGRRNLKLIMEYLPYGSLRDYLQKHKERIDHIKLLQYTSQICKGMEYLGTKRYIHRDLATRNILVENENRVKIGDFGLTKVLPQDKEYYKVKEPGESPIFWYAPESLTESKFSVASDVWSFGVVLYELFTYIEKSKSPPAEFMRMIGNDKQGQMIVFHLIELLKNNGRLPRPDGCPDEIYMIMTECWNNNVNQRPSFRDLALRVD
Description: as §1, §2

[4] = target: T4, human JAK1 kinase domain (JH1) (Homo sapiens, UniProt P23458); assay: JH1 biochemical assay for JAK1 (ADP-Glo kinase assay, recombinant JH1 catalytic domain, JAK3-342 peptide, 35 μM ATP)
T4 construct: recombinantly generated catalytic kinase (also known as JH1) domain of human JAK1, JAK2, JAK3 and TYK2
T4 sequence (P23458 875-1153 limits assumed): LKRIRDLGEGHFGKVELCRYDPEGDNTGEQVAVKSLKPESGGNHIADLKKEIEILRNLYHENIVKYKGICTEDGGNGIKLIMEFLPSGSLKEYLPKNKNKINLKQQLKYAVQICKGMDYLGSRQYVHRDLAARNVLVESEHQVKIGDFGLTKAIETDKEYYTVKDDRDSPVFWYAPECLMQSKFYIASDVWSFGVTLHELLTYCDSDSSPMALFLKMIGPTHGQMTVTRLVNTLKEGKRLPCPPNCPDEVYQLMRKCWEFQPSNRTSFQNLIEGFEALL
Description: as §1, §2

Structure (SMILES) | IC50 ([1]; JAK3 JH1, ADP-Glo) [nM] | IC50 ([2]; TYK2 JH1, ADP-Glo) [nM] | IC50 ([3]; JAK2 JH1, ADP-Glo) [nM] | IC50 ([4]; JAK1 JH1, ADP-Glo) [nM] | IC50 ([1]; JH1 kinase domain, ADP-Glo) [nM] | IC50 ([2]; JH1 kinase domain, ADP-Glo) [nM] | IC50 ([3]; JH1 kinase domain, ADP-Glo) [nM] | IC50 ([4]; JH1 kinase domain, ADP-Glo) [nM]
C[C@@H]1CN(c2ccnc3cc(-c4cnn(C)c4)nn23)C(=O)[C@]1(C#N)C1CC1 [Example 273, (3R,4S)-3-cyclopropyl-4-methyl-1-(2-(1-methyl-1H-pyrazol-4-yl)pyrazolo[1,5-a]pyrimidin-7-yl)-2-oxopyrrolidine-3-carbonitrile] | 5000 to 10000 | > 100 | > 10000 | 5000 to 10000 | – | – | – | –
C[C@@H]1CN(c2nn(-c3cccc(=O)n3C)c3cnccc23)C(=O)[C@]1(C#N)C1CC1 [Example 279, (3R,4S)-3-cyclopropyl-4-methyl-1-(1-(1-methyl-6-oxo-1,6-dihydropyridin-2-yl)-1H-pyrazolo[3,4-c]pyridin-3-yl)-2-oxopyrrolidine-3-carbonitrile] | > 10000 | > 100 | > 10000 | > 10000 | – | – | – | –
C[C@@H]1CN(c2ccnn3cc(-c4cncc(OC(F)F)c4)cc23)C(=O)[C@]1(C#N)C1CC1 [Example 177, (3R,4S)-3-cyclopropyl-1-(6-(5-(difluoromethoxy)pyridin-3-yl)pyrrolo[1,2-b]pyridazin-4-yl)-4-methyl-2-oxopyrrolidine-3-carbonitrile] | – | – | – | – | 1000 to 5000 | 20 to 50 | 1000 to 5000 | 100 to 1000
C[C@@H]1C[C@](C#N)(C2CC2)C(=O)N1c1ccnn2cc(-c3cnn(C)c3)cc12 [Example 16, (3R,5R)-3-cyclopropyl-5-methyl-1-(6-(1-methyl-1H-pyrazol-4-yl)pyrrolo[1,2-b]pyridazin-4-yl)-2-oxopyrrolidine-3-carbonitrile] | – | – | – | – | > 10000 | > 100 | 100 to 1000 | 5000 to 10000
CC[C@H]1C[C@@](C#N)(C2CC2)C(=O)N1c1ccnn2cc(C3=NC(C)N=C3)cc12 (stereo partly drawn) [Example 19, (3S,5S)-3-cyclopropyl-5-ethyl-1-(6-(2-methyl-2H-imidazol-4-yl)pyrrolo[1,2-b]pyridazin-4-yl)-2-oxopyrrolidine-3-carbonitrile] | – | – | – | – | > 10000 | > 100 | > 10000 | > 10000
COc1cncc(-c2cc3c(N4C[C@@H](C)[C@@](C#N)(C5CC5)C4=O)ccnn3c2)c1 [Example 82, (3R,4S)-3-cyclopropyl-1-(6-(5-methoxypyridin-3-yl)pyrrolo[1,2-b]pyridazin-4-yl)-4-methyl-2-oxopyrrolidine-3-carbonitrile] | – | – | – | – | > 10000 | 20 to 50 | > 10000 | > 10000
C[C@@H]1CN(c2ccnn3cc(-c4nnc5n4CCCC5)cc23)C(=O)[C@]1(C#N)C1CC1 [Example 105, (3R,4S)-3-cyclopropyl-4-methyl-2-oxo-1-(6-(5,6,7,8-tetrahydro-[1,2,4]triazolo[4,3-a]pyridin-3-yl)pyrrolo[1,2-b]pyridazin-4-yl)pyrrolidine-3-carbonitrile trifluoroacetate] | – | – | – | – | 5000 to 10000 | > 100 | 1000 to 5000 | > 10000
C[C@@H]1CN(c2ccnn3cc(-c4cnccc4C(F)(F)F)cc23)C(=O)[C@]1(C#N)C1CC1 [Example 179, (3R,4S)-3-cyclopropyl-4-methyl-2-oxo-1-(6-(4-(trifluoromethyl)pyridin-3-yl)pyrrolo[1,2-b]pyridazin-4-yl)pyrrolidine-3-carbonitrile] | – | – | – | – | > 10000 | > 100 | > 10000 | > 10000
Cn1cc(-c2cc3c(N4CC[C@](C#N)(C5CC5)C4=O)ccnn3c2)cn1 [Example 14, (R)-3-cyclopropyl-1-(6-(1-methyl-1H-pyrazol-4-yl)pyrrolo[1,2-b]pyridazin-4-yl)-2-oxopyrrolidine-3-carbonitrile] | – | – | – | – | > 10000 | > 100 | 5000 to 10000 | > 10000
C[C@@H]1CN(c2ccnn3cc(-c4ncc(C#N)s4)cc23)C(=O)[C@]1(C#N)C1CC1 [Example 117, 2-(4-((3R,4S)-3-cyano-3-cyclopropyl-4-methyl-2-oxopyrrolidin-1-yl)pyrrolo[1,2-b]pyridazin-6-yl)thiazole-5-carbonitrile trifluoroacetate] | – | – | – | – | 1000 to 5000 | 20 to 50 | 1000 to 5000 | 1000 to 5000
Cc1ccc(-n2nc(N3C[C@@H](C)[C@@](C#N)(C4CC4)C3=O)c3ccncc32)cn1 [Example 282, (3R,4S)-3-cyclopropyl-4-methyl-1-(1-(6-methylpyridin-3-yl)-1H-pyrazolo[3,4-c]pyridin-3-yl)-2-oxopyrrolidine-3-carbonitrile] | 1000 to 5000 | 20 to 50 | 1000 to 5000 | 1000 to 5000 | – | – | – | –
COc1ncccc1-c1cn2nccc2c(N2C[C@@H](C)[C@@](C#N)(C3CC3)C2=O)n1 [Example 250, (3R,4S)-3-cyclopropyl-1-(6-(2-methoxypyridin-3-yl)pyrazolo[1,5-a]pyrazin-4-yl)-4-methyl-2-oxopyrrolidine-3-carbonitrile] | 1000 to 5000 | 20 to 50 | 1000 to 5000 | 100 to 1000 | – | – | – | –
COc1cccc(-c2cc3c(N4C[C@@H](C)[C@@](C#N)(C5CC5)C4=O)ccnn3c2)n1 [Example 143, (3R,4S)-3-cyclopropyl-1-(6-(6-methoxypyridin-2-yl)pyrrolo[1,2-b]pyridazin-4-yl)-4-methyl-2-oxopyrrolidine-3-carbonitrile trifluoroacetate] | – | – | – | – | 100 to 1000 | 20 to 50 | 1000 to 5000 | 100 to 1000
Cn1cc(-c2cc3c(N4CC[C@@](C)(C#N)C4=O)ccnn3c2)cn1 (single isomer, unassigned) [Example 38] | – | – | – | – | 1000 to 5000 | 50 to 100 | 1000 to 5000 | 1000 to 5000
C[C@@H]1CN(c2cc(-c3cnn(C)c3)cc3nccn23)C(=O)[C@]1(C#N)C1CC1 [Example 287, (3R,4S)-3-cyclopropyl-4-methyl-1-(7-(1-methyl-1H-pyrazol-4-yl)imidazo[1,2-a]pyridin-5-yl)-2-oxopyrrolidine-3-carbonitrile] | > 10000 | > 100 | > 10000 | > 10000 | – | – | – | –
Cn1cc(-c2cc3c(N4CC[C@](C#N)(C5COC5)C4=O)ccnn3c2)cn1 (single isomer, unassigned) [Example 44] | – | – | – | – | > 10000 | > 100 | > 10000 | > 10000
C[C@@H]1CN(c2ccnn3cc(-c4ncccc4O)cc23)C(=O)[C@]1(C#N)C1CC1 [Example 149, (3R,4S)-3-cyclopropyl-1-(6-(3-hydroxypyridin-2-yl)pyrrolo[1,2-b]pyridazin-4-yl)-4-methyl-2-oxopyrrolidine-3-carbonitrile trifluoroacetate] | – | – | – | – | 1000 to 5000 | 20 to 50 | 5000 to 10000 | 1000 to 5000
Cc1cc(-c2cc3c(N4C[C@@H](C)[C@@](C#N)(C5CC5)C4=O)ccnn3c2)ncc1C#N [Example 144, 6-(4-((3R,4S)-3-cyano-3-cyclopropyl-4-methyl-2-oxopyrrolidin-1-yl)pyrrolo[1,2-b]pyridazin-6-yl)-4-methylnicotinonitrile trifluoroacetate] | – | – | – | – | 1000 to 5000 | 20 to 50 | 1000 to 5000 | 1000 to 5000
CC[C@H]1CN(c2ccnn3cc(-c4cnn(C)c4)cc23)C(=O)[C@@]1(C#N)C1CC1 [Example 25, (3S,4R)-3-cyclopropyl-4-ethyl-1-(6-(1-methyl-1H-pyrazol-4-yl)pyrrolo[1,2-b]pyridazin-4-yl)-2-oxopyrrolidine-3-carbonitrile] | – | – | – | – | > 10000 | > 100 | > 10000 | > 10000
C[C@H]1C[C@@](C#N)(C2CC2)C(=O)N1c1ccnn2cc(-c3cnn(C)c3)cc12 [Example 31, (3S,5S)-3-cyclopropyl-5-methyl-1-(6-(1-methyl-1H-pyrazol-4-yl)pyrrolo[1,2-b]pyridazin-4-yl)-2-oxopyrrolidine-3-carbonitrile] | – | – | – | – | > 10000 | > 100 | > 10000 | > 10000
C[C@@H]1CN(c2ccnn3cc(-c4cc(CO)ccn4)cc23)C(=O)[C@]1(C#N)C1CC1 [Example 148, (3R,4S)-3-cyclopropyl-1-(6-(4-(hydroxymethyl)pyridin-2-yl)pyrrolo[1,2-b]pyridazin-4-yl)-4-methyl-2-oxopyrrolidine-3-carbonitrile trifluoroacetate] | – | – | – | – | 100 to 1000 | 20 to 50 | 100 to 1000 | 100 to 1000
